According to US20220280507A1, “USES OF 5-METHYLTETRAHYDROFOLATE AND ITS COMPOSITION” (Lianyungang Jinkang Hexin Pharmaceutical Co., Ltd., priority 2019, published 2022):
Read-outs that look alike come from different tables or passages of the source.

What was measured:
[1] = tested on: mice after drinking; conditions: n=10
Method: Experiment 8 Tail Suspension Test and Swimming Test in Mice after Drinking
Clean-grade male Kunming mice, weighing 18-22 g, were chosen. The test was carried out at 23° C. with a humidity of 50%. The mice ate and drank freely, adapting to the environment for 5 days before the test. Then they were divided into 5 groups: model group, normal group, high-dose 5-MTHF-Ca group, medium-dose 5-MTHF-Ca group and low-dose 5-MTHF-Ca group (16 mg·Kg−1, 8mg·Kg−1, 4mg·Kg−1),
10 mice in each group. The model group was given (by gavage) Erguotou (batch number: 201603092, specification: 2L, place of origin: Beijing Shunxin Agriculture Co., Ltd.) at 18 ml·Kg−1, and calcium folate (Lianyungang Jinkang Hexin Pharmaceutical Co., Ltd.). The high-dose, medium-dose and low-dose groups were also given the solution containing Erguotou and calcium folate. The mice were tested after 24 h. The tail suspension test is carried out by fixing the tail of a mouse so that it is suspended head down in a state of desperately struggling to escape but unable to escape. After a period of time, record the immobility time of the mouse in a desperate state in this environment to observe the therapeutic effect after administration. The head of the mouse suspended upside down was 10 cm from the bottom of the box, and two mice were suspended at a time, which were separated by a partition to avoid collision. The mice were suspended for 10 min, and the accumulated immobility time of the suspended mice was counted within the latter 5 min. The results are as follows:
The mice were placed in a plastic swimming box with a length of 50 cm, a width of 40 cm and a height of 40 cm. The time was counted for 10 min after the mice were placed in the water. The accumulated immobility time of the mice with only slight limb movements and no struggling, and remaining afloat was recorded within the latter 5 min.

[2] = tested on: alcohol drinking rats; experiment: Disappearance and recovery of righting reflex of alcohol drinking rats; format: in vivo, SD rats; conditions: 30 min before Erguotou 9 ml·Kg−1, n=6
Method: Experiment 1 Effect of 5-methyltetrahydrofolate on disappearance and recovery of righting reflex of alcohol drinking rats.
30 SPF-grade SD rats were chosen in half male and half female, and divided into 5 groups with 6 rats in each group, including normal group, model group, positive drug group (Weihe Liver Protectant), 5-methyltetrahydrofolate administration group (4 mg·Kg−1 medium dose group, 8 mg·Kg−1 high dose group, respectively). After fasting for 12 h, the administration group was given Weihe Liver Protectant at 50 mg·kg−1, 5-methyltetrahydrofolate (Jinkang Hexin product) at 4 mg·Kg−1, 5-methyltetrahydrofolate (Jinkang Hexin product) at 8 mg·Kg−1, respectively. […] The intoxication in rats depends on righting reflex disappearing, that is, cover the head of the rat with gauze, and gently place the rat back down in the animal cage. […] The disappearance time and recovery time of the righting reflex in rats after drinking were recorded.

[3] = tested on: brain tissue of rats; conditions: n=5
Method: Experiment 11 Effects of Drinking and 5-Methyltetrahydrofolate on the Concentrations of Formaldehyde and Formate in the Brain of Rats
The concentrations of formaldehyde and formate, as well as those of serotonin and dopamine in brain tissue of rats were detected at this time. SPF-grade female SD rats, fasted overnight, were divided into 4 groups.
(1) Ethanol group, with intragastric administration of ethanol at a dose of 1 g/kg respectively at 1, 2, 3 h, n=5; (2) control group, with intragastric administration of glucose at a dose of 1.6 g/kg (equivalent to alcohol calories) respectively at 1, 2, and 3 h, n=5; (3) 5-methyltetrahydrofolate group, with intragastric administration of 5-methyltetrahydrofolate calcium at a dose of 4 mg/kg at 0 h, followed by glucose at a dose of 1.6 g/kg (equivalent to alcohol calories) respectively at 1, 2, and 3 h, n=5; (4) 5-methyltetrahydrofolate alcohol group, with intragastric administration of 5-methyltetrahydrofolate calcium at a dose of 4 mg/kg at 0 h, followed by ethanol at a dose of 1 g/kg respectively at 1, 2, and 3 h, n=5.
Gas chromatography was used to detect methanol and ethanol concentrations in blood of rats, and HPLC was used to detect formaldehyde concentration in brain tissue. 0.1 g of brain tissue was taken and 0.5 ml of SDN lysate was added to make homogenate, then 0.5 ml of trifluoroacetic acid was added. The sample was centrifuged at 4° C., 0.4 ml of supernatant was collected, 0.1 ml DNPH (1 g/L) was added, mixed and incubated in 60° C. water bath for 30 min, centrifuged at 4° C., and supernatant was collected to detect formaldehyde concentration. Fluorescence spectrometry was used to detect formate concentration in brain. Serotonin and dopamine enzyme-linked immunosorbent reagent was used to detect neurotransmitters in brain in strict accordance with the instructions.

[4] = 5-methyltetrahydrofolate calcium 4 mg/kg ig at 0 h + ethanol 1 g/kg at 1, 2, 3 h, 24 h after drinking
[5] = 5-methyltetrahydrofolate calcium 4 mg/kg ig at 0 h + glucose 1.6 g/kg at 1, 2, 3 h, 24 h

Row | Molecule | Swimming immobility time ([1]; high dose 16 mg·Kg−1 with Erguotou 18 ml·Kg−1, tested after 24 h) [S] | Swimming immobility time ([1]; low dose 4 mg·Kg−1 with Erguotou 18 ml·Kg−1, tested after 24 h) [S] | Swimming immobility time ([1]; medium dose 8 mg·Kg−1 with Erguotou 18 ml·Kg−1, tested after 24 h) [S] | Disappearance time (righting reflex) ([2]; 4 mg·Kg−1 (medium)) [min] | Recovery time (righting reflex) ([2]; 4 mg·Kg−1 (medium)) [min] | Disappearance time (righting reflex) ([2]; 8 mg·Kg−1 (high)) [min] | Recovery time (righting reflex) ([2]; 8 mg·Kg−1 (high)) [min] | 5-hydroxytryptamine in brain tissue [3, 4] [µg/L] | Dopamine in brain tissue [3, 4] [ng/L] | Formaldehyde in brain tissue [3, 4] [mg/L] | Formate in brain tissue [3, 4] [mg/L] | 5-hydroxytryptamine in brain tissue [3, 5] [µg/L] | Dopamine in brain tissue [3, 5] [ng/L] | Formaldehyde in brain tissue [3, 5] [mg/L] | Formate in brain tissue [3, 5] [mg/L]
1 | 5-methyltetrahydrofolate calcium | 104.64 ± 5.24 | 123.56 ± 3.64 | 110.42 ± 2.64 | – | – | – | – | – | – | – | – | – | – | – | –
2 | CN1c2c([nH]c(N)nc2=O)NCC1CNc1ccc(C(=O)N[C@@H](CCC(=O)O)C(=O)O)cc1 (stereo partly drawn) [5-methyltetrahydrofolate, N-[4-[[(2-amino-1,4,5,6,7,8-hexahydro-4-oxo-5-methyl-(6S), -(6R), and (6R,S)-pteridyl)methyl)amino)toluoyl-glutamic acid] | – | – | – | 30.1 ± 14.4 | 78.5 ± 14.5 | 42.3 ± 15.6 | 64.1 ± 14.5 | 0.10 ± 0.1 | 27 ± 4 | 1.14 ± 0.31 | 5.5 ± 0.4 | 0.12 ± 0.04 | 35 ± 3 | 0.39 ± 0.11 | 2.1 ± 0.2
